From patent US7915276B2, “Berberrubine derivatives having antifungal activities” (priority 2006, dated 2011)

Experiments:
[1] = biological target: T1, chitin synthase 2 of Saccharomyces cerevisiae ECY38-38A(pAS6) (Saccharomyces cerevisiae, UniProt P14180); experiment: In vitro enzyme assay for chitin synthase 2 of Saccharomyces cerevisiae (enzyme 2); type: biochemical; conditions: relative to polyoxin D (50% inhibitory activity = value 5)
T1 construct: made in house; host or cells: Saccharomyces cerevisiae ECY38-38A (chs1-23 chs2::LEU2 cal1/csd2) carrying plasmid pAS6, grown in galactose medium; 130,000 x g membrane pellet
Protocol: Crude enzyme was prepared using the recombinant Saccharomyces cerevisiae ECY38-38A(pAS6) (MATa chs1-23 chs2::LEU2 cal 1/csd 2 ura 3-52 trp 1-1 leu 2-2 pAS6) strain, which can produce the chitin synthase 2 only. The strain was inoculated with the YPG culture medium (1% yeast extract, 2% peptone, 2% galactose) and cultured at 30° C. overnight. Then, it was inoculated with a fresh YPG culture medium and cultured for 15-17 hours until the Absorbance at 550 nm reaches 1.0. The cells were collected and suspended in 50 mM Tris-HCl (pH 7.5) buffer containing 5 mM magnesium acetate. After centrifugation at 8,000×g for 10 minutes, the pellets were suspended in the same Tris-HCl buffer solution. The suspension was divided into aliquots in 50 mL conical test tubes. After adding the glass beads, the cells were disrupted by vigorously vortexing with an interval of 30 seconds. The cell residues were removed by centrifuging at 3,000×g for 5 minutes. The supernatant was ultra-centrifuged at 130,000×g for 1 hour. The resultant pellets were collected and suspended in 50 mM Tris-HCl (pH 7.5) containing 33% glycerol, to a final volume of 1.6 mg/g (wet weight) of yeast used. The suspension was divided into aliquots and kept at −70° C. until it is used.
(§1) The inhibitory activities against the chitin synthase 1 of Candida albicans chs2 Δ chs 3 Δ (abbreviated as ‘enzyme 1’) and the chitin synthase 2 of Saccharomyces cerevisiae ECY38-38A(pAS6)(abbreviated as ‘enzyme 2’) was examined for compound Nos. 1 to 70 compound and polyoxin D, a positive control compound.
(§2) The inhibitory activity against the chitin synthase 1 prepared from Candida albicans and the chitin synthase 2 prepared from Saccharomyces cerevisiae were examined as follows. A reaction mixture containing 32 mM Tris-HCl (pH 7.5), 2 mM cobalt acetate, 1.1 mM UDP-[U-^14C]-N-acetyl-d-glucosamine (GlcNAc) (400,000 cpm/μmol), 2 μL of trypsin (0.75 mg/mL), 20 μL of each crude enzyme and 14 μL of each test sample was kept at 30° C. for 15 minutes to activate the enzyme. Then, 2 μL of trypsin inhibitor (1.5 mg/mL) was added and the mixture was kept in an ice bath for 10 minutes to deactivate trypsin. 2 μL of 0.8 M N-acetyl-d-glucosamine was added to a total volume of 50 μL and reaction was performed at 30° C. for 90 minutes. The reaction was stopped using 1 mL of 10% TCA solution and the reaction solution was filtered with a GF/C filter and dried at room temperature. After adding 3 mL of a scintillation cocktail solution, the amount of isotopes was measured using a liquid scintillation counter. Percentage inhibition against each enzyme was calculated by the following Equation 1.
(§3) The control group was not added with a test sample in the reaction mixture and that of the untreated group contained neither the test sample nor the crude enzyme.
(§4) A 50% inhibitory activity of polyoxin D against the enzyme was given the value 5. A compound having the same inhibitory activity as that of polyoxin D at the same concentration was given the value 5. Compounds having the inhibitory activity at 2-fold, 4-fold, 8-fold and 16-fold higher concentrations than that of polyoxin D were given the values of 4, 3, 2 and 1, respectively. On the other hand, compounds having the inhibitory activity at ½, ¼ and ⅛ lower concentrations than that of polyoxin D were given the values of 6, 7 and 8, respectively.

[2] = biological target: T2, chitin synthase 1 of Candida albicans chs2 Δ chs 3 Δ (Candida albicans, UniProt P23316); experiment: In vitro enzyme assay for chitin synthase 1 of Candida albicans (enzyme 1); type: biochemical; conditions: relative to polyoxin D (50% inhibitory activity = value 5)
T2 construct: Crude enzyme was prepared using the Candida albicans chs2 Δ chs 3 Δ mutant; endogenous in cells; host or cells: Candida albicans chs2Δ/chs2Δ chs3Δ/chs3Δ mutant; 130,000 x g membrane pellet
Protocol: Crude enzyme was prepared using the Candida albicans chs2 Δ chs 3 Δ mutant (chs2 Δ::hisG/chs2 Δ::hisG chs3 Δ::hisG/chs3 Δ::hisG) strain, which can only produce the chitin synthase 1. The strain was inoculated with the SDA (Sabouraud dextrose agar) culture medium (4% dextrose, 1% peptone, pH 5.6) and cultured at 30° C. for 15-17 hours until the absorbance at 550nm reaches 0.7. The cells were collected and suspended in a 50 mM Tris-HCl (pH 7.5) buffer solution containing 5 mM magnesium acetate. After centrifugation at 8,000×g for 10 minutes, the pellets were suspended in the same Tris-HCl buffer solution. The suspension was divided into aliquots in 50 mL conical test tubes. After adding glass beads, the cells were disrupted by vigorously vortexing with an interval of 30 seconds. The cell residues were removed by centrifuging at 3,000×g for 5 minutes. The supernatant was ultra-centrifuged at 130,000×g for 1 hour. The resultant pellets were collected and suspended in 50 mM Tris-HCl (pH 7.5) containing 33% glycerol, to a final volume of 1.6 mg/g (wet weight) of yeast used. The suspension was divided into aliquots and kept at −70° C. until it is used.
as §1, §2, §3, §4

T1 sequence (P14180 whole entry): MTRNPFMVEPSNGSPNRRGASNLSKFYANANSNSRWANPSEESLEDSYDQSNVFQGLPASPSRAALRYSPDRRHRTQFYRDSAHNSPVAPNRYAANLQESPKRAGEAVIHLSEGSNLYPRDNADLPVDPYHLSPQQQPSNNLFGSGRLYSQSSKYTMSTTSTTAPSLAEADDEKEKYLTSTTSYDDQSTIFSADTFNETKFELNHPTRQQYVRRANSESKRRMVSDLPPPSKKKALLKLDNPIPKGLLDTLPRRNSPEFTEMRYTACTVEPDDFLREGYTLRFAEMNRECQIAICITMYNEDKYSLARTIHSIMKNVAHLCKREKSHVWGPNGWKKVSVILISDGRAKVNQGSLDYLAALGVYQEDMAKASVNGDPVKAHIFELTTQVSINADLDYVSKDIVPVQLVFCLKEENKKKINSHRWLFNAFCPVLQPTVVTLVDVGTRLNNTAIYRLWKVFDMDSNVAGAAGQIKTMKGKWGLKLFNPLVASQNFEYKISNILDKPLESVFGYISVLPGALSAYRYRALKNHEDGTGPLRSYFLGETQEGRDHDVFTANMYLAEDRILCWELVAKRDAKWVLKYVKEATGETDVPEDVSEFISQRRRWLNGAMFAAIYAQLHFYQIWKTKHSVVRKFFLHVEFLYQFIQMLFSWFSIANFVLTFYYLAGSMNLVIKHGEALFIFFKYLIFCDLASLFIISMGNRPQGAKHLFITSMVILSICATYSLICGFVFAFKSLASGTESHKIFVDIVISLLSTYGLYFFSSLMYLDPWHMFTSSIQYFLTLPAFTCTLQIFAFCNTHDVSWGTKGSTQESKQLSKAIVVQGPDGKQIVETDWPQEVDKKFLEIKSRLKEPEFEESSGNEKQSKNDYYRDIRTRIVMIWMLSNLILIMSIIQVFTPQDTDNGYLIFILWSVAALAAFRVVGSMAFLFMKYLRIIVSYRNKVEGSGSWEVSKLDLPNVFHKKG
T2 sequence (P23316 whole entry, stated change not applied): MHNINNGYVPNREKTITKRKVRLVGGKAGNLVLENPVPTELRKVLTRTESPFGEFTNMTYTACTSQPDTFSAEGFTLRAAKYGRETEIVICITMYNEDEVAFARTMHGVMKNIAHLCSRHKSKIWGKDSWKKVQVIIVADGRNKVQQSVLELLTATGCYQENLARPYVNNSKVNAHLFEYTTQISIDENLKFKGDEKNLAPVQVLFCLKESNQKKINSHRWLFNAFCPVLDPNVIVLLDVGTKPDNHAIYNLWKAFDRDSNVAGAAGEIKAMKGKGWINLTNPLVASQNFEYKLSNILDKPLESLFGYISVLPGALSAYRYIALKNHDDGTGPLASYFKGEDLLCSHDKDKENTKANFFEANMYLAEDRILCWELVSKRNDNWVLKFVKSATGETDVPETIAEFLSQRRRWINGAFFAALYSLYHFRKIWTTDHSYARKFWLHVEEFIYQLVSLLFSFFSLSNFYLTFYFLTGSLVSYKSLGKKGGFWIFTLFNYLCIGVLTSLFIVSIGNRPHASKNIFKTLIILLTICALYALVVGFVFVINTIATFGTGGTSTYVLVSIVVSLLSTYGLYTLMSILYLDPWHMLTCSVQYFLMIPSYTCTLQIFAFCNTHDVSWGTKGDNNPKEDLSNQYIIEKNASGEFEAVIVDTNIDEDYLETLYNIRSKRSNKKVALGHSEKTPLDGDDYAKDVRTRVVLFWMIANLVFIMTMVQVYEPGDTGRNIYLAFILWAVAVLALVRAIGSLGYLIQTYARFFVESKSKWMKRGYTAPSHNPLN

With “13-(4-Trifluoromethoxybenzyl)berberrubine [Compound No. 3]” the “Relative activity Enzyme 2” value [1] was 3 (Compounds having the inhibitory activity at 2-fold, 4-fold, 8-fold and 16-fold higher concentrations than that of polyoxin D were given the values of 4, 3, 2 and 1, respectively) and the “Relative activity Enzyme 1” value [2] was 1 (Compounds having the inhibitory activity at 2-fold, 4-fold, 8-fold and 16-fold higher concentrations than that of polyoxin D were given the values of 4, 3, 2 and 1, respectively).

For “13-(4-Trifluoromethylbenzyl)-9-O-butylberberrubine chloride [Compound No. 68]”, the “Relative activity Enzyme 2” value [1] was 6 (compounds having the inhibitory activity at ½, ¼ and ⅛ lower concentrations than that of polyoxin D were given the values of 6, 7 and 8, respectively) and the “Relative activity Enzyme 1” value [2] was 3 (Compounds having the inhibitory activity at 2-fold, 4-fold, 8-fold and 16-fold higher concentrations than that of polyoxin D were given the values of 4, 3, 2 and 1, respectively).

With “13-(4-Trifluoromethylbenzyl)-9-O-butylberberrubine iodide [Compound No. 36]” the “Relative activity Enzyme 2” value [1] was 6 (compounds having the inhibitory activity at ½, ¼ and ⅛ lower concentrations than that of polyoxin D were given the values of 6, 7 and 8, respectively) and the “Relative activity Enzyme 1” value [2] was 3 (Compounds having the inhibitory activity at 2-fold, 4-fold, 8-fold and 16-fold higher concentrations than that of polyoxin D were given the values of 4, 3, 2 and 1, respectively).

In the case of “13-(4-Trifluoromethylbenzyl)-9-O-hexylberberrubine chloride [Compound No. 69]”, the “Relative activity Enzyme 2” value [1] is reported as 5 (A compound having the same inhibitory activity as that of polyoxin D at the same concentration was given the value 5) and the “Relative activity Enzyme 1” value [2] is reported as 3 (Compounds having the inhibitory activity at 2-fold, 4-fold, 8-fold and 16-fold higher concentrations than that of polyoxin D were given the values of 4, 3, 2 and 1, respectively).

In the case of “13-(4-Trifluoromethylbenzyl)-9-O-hexylberberrubine iodide [Compound No. 37]”, the “Relative activity Enzyme 2” value [1] is reported as 5 (A compound having the same inhibitory activity as that of polyoxin D at the same concentration was given the value 5) and the “Relative activity Enzyme 1” value [2] is reported as 2 (Compounds having the inhibitory activity at 2-fold, 4-fold, 8-fold and 16-fold higher concentrations than that of polyoxin D were given the values of 4, 3, 2 and 1, respectively).

“13-(4-Trifluoromethylbenzyl)berberrubine [Compound No. 4]” was tested, and the “Relative activity Enzyme 2” value [1] was 3 (Compounds having the inhibitory activity at 2-fold, 4-fold, 8-fold and 16-fold higher concentrations than that of polyoxin D were given the values of 4, 3, 2 and 1, respectively) and the “Relative activity Enzyme 1” value [2] was 1 (Compounds having the inhibitory activity at 2-fold, 4-fold, 8-fold and 16-fold higher concentrations than that of polyoxin D were given the values of 4, 3, 2 and 1, respectively).

“13-(4-tert-Butylbenzyl)berberrubine [Compound No. 5]” was tested, and the “Relative activity Enzyme 2” value [1] was 4 (Compounds having the inhibitory activity at 2-fold, 4-fold, 8-fold and 16-fold higher concentrations than that of polyoxin D were given the values of 4, 3, 2 and 1, respectively) and the “Relative activity Enzyme 1” value [2] was 2 (Compounds having the inhibitory activity at 2-fold, 4-fold, 8-fold and 16-fold higher concentrations than that of polyoxin D were given the values of 4, 3, 2 and 1, respectively).

In the case of `COc1ccc2c(Cc3ccc(C(F)(F)F)cc3)c3[n+](cc2c1OC)CCc1cc2c(cc1-3)OCO2.[Cl-]` [Comparative compound 2, reference compound], the “Relative activity Enzyme 2” value [1] is reported as 2 (Compounds having the inhibitory activity at 2-fold, 4-fold, 8-fold and 16-fold higher concentrations than that of polyoxin D were given the values of 4, 3, 2 and 1, respectively) and the “Relative activity Enzyme 1” value [2] is reported as <1 (Compounds having the inhibitory activity at 2-fold, 4-fold, 8-fold and 16-fold higher concentrations than that of polyoxin D were given the values of 4, 3, 2 and 1, respectively).

With `COc1ccc2c(Cc3ccc(C(OC)(OC)OC)cc3)c3[n+](cc2c1OC)CCc1cc2c(cc1-3)OCO2.[Cl-]` [Comparative compound 3, reference compound] the “Relative activity Enzyme 2” value [1] was 1 (Compounds having the inhibitory activity at 2-fold, 4-fold, 8-fold and 16-fold higher concentrations than that of polyoxin D were given the values of 4, 3, 2 and 1, respectively) and the “Relative activity Enzyme 1” value [2] was <1 (Compounds having the inhibitory activity at 2-fold, 4-fold, 8-fold and 16-fold higher concentrations than that of polyoxin D were given the values of 4, 3, 2 and 1, respectively).

`COc1ccc2c(Cc3cc(F)c(F)c(F)c3)c3[n+](cc2c1OCc1ccc(C(C)(C)C)cc1)CCc1cc2c(cc1-3)OCO2.[Br-]` [Compound No. 29, 13-(3,4,5-Trifluorobenzyl)-9-O-(4-tert-butylbenzyl)berberrubine bromide] was tested, and the “Relative activity Enzyme 2” value [1] was 5 (A compound having the same inhibitory activity as that of polyoxin D at the same concentration was given the value 5) and the “Relative activity Enzyme 1” value [2] was 2 (Compounds having the inhibitory activity at 2-fold, 4-fold, 8-fold and 16-fold higher concentrations than that of polyoxin D were given the values of 4, 3, 2 and 1, respectively).

With `COc1cc(Cc2c3[n+](cc4c(OCc5ccc(C(C)(C)C)cc5)c(OC)ccc24)CCc2cc4c(cc2-3)OCO4)cc(OC)c1OC.[Br-]` [Compound No. 32, 13-(3,4,5-Trimethoxybenzyl)-9-O-(4-tert-butylbenzyl)berberrubine bromide] the “Relative activity Enzyme 2” value [1] was 4 (Compounds having the inhibitory activity at 2-fold, 4-fold, 8-fold and 16-fold higher concentrations than that of polyoxin D were given the values of 4, 3, 2 and 1, respectively) and the “Relative activity Enzyme 1” value [2] was 2 (Compounds having the inhibitory activity at 2-fold, 4-fold, 8-fold and 16-fold higher concentrations than that of polyoxin D were given the values of 4, 3, 2 and 1, respectively).

For `COc1ccc2c(Cc3ccc(OC(F)(F)F)cc3)c3[n+](cc2c1OCc1ccc(C(C)(C)C)cc1)CCc1cc2c(cc1-3)OCO2.[Br-]` [Compound No. 35, 13-(4-Trifluoromethoxybenzyl)-9-O-(4-tert-butylbenzyl)berberrubine bromide], the “Relative activity Enzyme 2” value [1] was 5 (A compound having the same inhibitory activity as that of polyoxin D at the same concentration was given the value 5) and the “Relative activity Enzyme 1” value [2] was 2 (Compounds having the inhibitory activity at 2-fold, 4-fold, 8-fold and 16-fold higher concentrations than that of polyoxin D were given the values of 4, 3, 2 and 1, respectively).

For `COc1ccc2c(Cc3ccc(C(F)(F)F)cc3)c3[n+](cc2c1OCc1ccc(C(C)(C)C)cc1)CCc1cc2c(cc1-3)OCO2.[Br-]` [Compound No. 38, 13-(4-Trifluoromethylbenzyl)-9-O-(4-tert-butylbenzyl)berberrubine bromide], the “Relative activity Enzyme 2” value [1] was 5 (A compound having the same inhibitory activity as that of polyoxin D at the same concentration was given the value 5) and the “Relative activity Enzyme 1” value [2] was 2 (Compounds having the inhibitory activity at 2-fold, 4-fold, 8-fold and 16-fold higher concentrations than that of polyoxin D were given the values of 4, 3, 2 and 1, respectively).
